Measured values from PMC11557217, “Insights into the Functioning of the D-amino Acid Transaminase from Haliscomenobacter Hydrossis via a Structural and Spectral Analysis of its Complex with 3-Aminooxypropionic Acid” (Acta Naturae, 2024).

Tests used:
TA_Halhy [1] = molecular target: T1, TA_Halhy (Haliscomenobacter hydrossis, UniProt F4KWH0); experiment: X-ray crystal structure ([…] Å, co-crystallization); UV/Vis spectra of oxime formation; assay type: binding; conditions: covalent: forms oxime with the PLP cofactor; crystals at pH 5.5, 12 mM compound, 6 mM PLP; spectra at pH 8.0, 25 °C; carboxyl group in O-pocket; reversible
T1 construct: gene Halhy_2446; PLP holoenzyme; homodimer
T1 sequence (F4KWH0 1-281): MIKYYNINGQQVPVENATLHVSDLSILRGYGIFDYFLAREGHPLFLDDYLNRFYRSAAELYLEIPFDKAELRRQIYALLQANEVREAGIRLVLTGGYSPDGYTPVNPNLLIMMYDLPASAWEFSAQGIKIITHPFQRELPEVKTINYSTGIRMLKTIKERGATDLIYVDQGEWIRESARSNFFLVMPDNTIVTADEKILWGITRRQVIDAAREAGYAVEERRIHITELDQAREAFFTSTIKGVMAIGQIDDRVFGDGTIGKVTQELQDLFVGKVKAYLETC

TA_Halhy [2] = molecular target: T1, TA_Halhy; experiment: transamination, lactate dehydrogenase-coupled NADH assay; substrate inhibition curve; assay type: biochemical; conditions: 2.5 mM pyruvate, 30 μM PLP, 50 mM potassium phosphate, pH 8.0, 40 °C
TA_Halhy [3] = molecular target: T1, TA_Halhy; experiment: UV/Vis spectra and activity restoration of the apoenzyme on adding PLP; assay type: biochemical; conditions: 50 mM potassium phosphate, pH 8.0; covalent internal aldimine in the holoenzyme
TA_Halhy [4] = molecular target: T1, TA_Halhy; experiment: transamination; substrate inhibition curve; assay type: biochemical; conditions: 40 mM D-alanine, 30 μM PLP, 50 mM potassium phosphate, pH 8.0, 40 °C

## NOCCC(=O)O [3-aminooxypropionic acid, 3-(aminooxy)propanoic acid]
TA_Halhy [1]
  X-ray crystal structure (1.70 Å, co-crystallization); UV/Vis spectra of oxime fo: the structure of the TA_Halhy complex has been solved and refined

## N[C@H](CCC(=O)O)C(=O)O [D-glutamic acid]
TA_Halhy [2]
  transamination, lactate dehydrogenase-coupled NADH assay; substrate inhibition c: TA_Halhy is inhibited by D-glutamic acid and α-ketoglutarate at substrate concentrations as low as millimolars

## Cc1ncc(COP(=O)(O)O)c(C=O)c1O [pyridoxal 5'-phosphate]
TA_Halhy [3]
  UV/Vis spectra and activity restoration of the apoenzyme on adding PLP: Holoenzyme was formed, and TA_Halhy activity was fully restored, after PLP was added

## O=C(O)CCC(=O)C(=O)O [α-ketoglutarate]
TA_Halhy [4]
  transamination; substrate inhibition curve: TA_Halhy is inhibited by D-glutamic acid and α-ketoglutarate at substrate concentrations as low as millimolars
